Paper PMC13183915, “A platinum butterfly effect: small changes turn an anticancer drug into a non-toxic metalloantibiotic with in vivo efficacy” (npj Antimicrobials and Resistance, 2026)
Several values for one entry are separate records, joined by “and”; a condition that tells them apart may be missing. Equal values may be shown once.

Tests used:
[1] = system: Escherichia coli W3110; assay: MIC assay, E. coli; type: cell-based; settings: Table S1, unit not given; method: starting concentration 100 μM
[2] = system: E. coli (NCTC 13476); assay: MIC, E. coli NCTC 13476 (with or without PMBN); type: cell-based; settings: E. coli NCTC 13476 + 10 µg/mL PMBN (polymyxin B nonapeptide)
[3] = system: MSSA ATCC 29213; assay: Broth microdilution MIC, MSSA ATCC 29213; type: cell-based, S. aureus
Experimental: (§1) The data is given in supporting information (Table S5). Before starting the experiment, a single colony was picked from MHA plate, inoculated in MHBII and incubated overnight at 37 °C with shaking for 18–24 h to get the starter culture. Antibiotic susceptibility testing was conducted according to the CLSI (Clinical & Laboratory Standards Institute) guidelines using the broth microdilution assay. 10 mg/mL stock solutions of test compounds were prepared in DMSO. Bacterial cultures were inoculated in MHBII and optical density (OD) was measured at 600 nm, followed by dilution to achieve ~10^6 CFU/mL. The compounds were tested from 64 to 0.5 mg/L in two-fold serial diluted fashion with 2.5 μL of each concentration added to well of a 96-well round bottom microtiter plate. Later, 97.5 μL of bacterial suspension was added to each well containing either test compound or appropriate controls. […] The MIC is defined as the lowest concentration of the compound at which there is absence of visible growth. For each test compound, MIC determinations were carried out independently three times using duplicate samples.

[4] = system: MRSA NRS 129; assay: Broth microdilution MIC, MRSA NRS 129; type: cell-based, S. aureus; settings: MRSA NRS 129
Experimental: as §1

[5] = system: MRSA NRS 191; assay: Broth microdilution MIC, MRSA NRS 191; type: cell-based, S. aureus; settings: MRSA NRS 191
Experimental: as §1

[6] = system: MRSA NRS 192; assay: Broth microdilution MIC, MRSA NRS 192; type: cell-based, S. aureus; settings: MRSA NRS 192
Experimental: as §1

[7] = system: MRSA NRS 194; assay: Broth microdilution MIC, MRSA NRS 194; type: cell-based, S. aureus; settings: MRSA NRS 194
Experimental: as §1

[8] = system: VRSA VRS 1; assay: Broth microdilution MIC, VRSA VRS 1; type: cell-based, S. aureus; settings: VRSA VRS 1
Experimental: as §1

[9] = system: VRSA VRS 12; assay: Broth microdilution MIC, VRSA VRS 12; type: cell-based, S. aureus; settings: VRSA VRS 12
Experimental: as §1

[10] = system: Vero cells; assay: Cytotoxicity against Vero cells (MTT assay); type: cell-based, African Green Monkey; settings: 72 h
Experimental: Cell toxicity was performed against Vero cells using the MTT assay. ~10^3 cells/well were seeded in 96 well plate and incubated at 37 °C with 5% CO2 atmosphere. […] After the incubation was over, MTT was added in each well, incubated at 37 °C for further 4 h, residual medium was discarded, 0.1 mL of DMSO was added to solubilize the formazan crystals and OD540 was taken for the calculation of IC50. Doxorubicin was used as positive control and each experiment was repeated in triplicate.

[11] = system: B. subtilis 168CA; assay: Optimal stressor concentration, acute shock growth curves; type: cell-based, Bacillus subtilis; settings: after compound addition
Experimental: To establish a starting concentration for the OSC assay, MICs against parent strain 168CA were determined under conditions equivalent to those used for mode of action assays. […] MICs were used as basis for OSC determination. To this end, growth curves were recorded using optical density (OD) measurements. Culture volumes of 20 mL were grown until reaching an OD600 of 0.3. Subsequently, the parent culture was split into 2 ml aliquots, followed by addition of different MIC multiples of Pt compounds[71]. An untreated culture served as control. Growth was followed until cultures reached the stationary phase. A concentration achieving 50–70% growth inhibition in exponential phase was selected as optimal stressor concentration. […] As controls, 0.23 µM nisin, 0.53 µM µM gramicidin, 100 µM CCCP, 0.67 µM vancomycin, 1.2 µM rifampicin, and 323.12 µM chloramphenicol were included as controls for specific assays as appropriate.

[12] = system: B. subtilis 168CA; assay: DiSC3(5)-based membrane potential measurement; type: cell-based, Bacillus subtilis; settings: 3.125 µM Pt1, 25 µM Pt8
Experimental: The membrane potential was measured according to Winkel et al. with minor modifications. B. subtilis 168CA was grown in LB containing 50 µg/mL bovine serum albumin (BSA). Cells were transferred to black 96-well polystyrene microtiter plates after reaching an OD600 of 0.3. DiSC3(5) was added to a final concentration of 1 µM, maintaining a constant concentration of 1% DMSO to avoid precipitation of the dye. After the fluorescence baseline had stabilized, antibiotic compounds were added, and measurements were continued for 30 min. Fluorescence was recorded at an excitation wavelength of 610–30 nm and an emission wavelength of 675–50 nm in a BMG Clariostar Plus plate reader.

[13] = system: RpsB-GFP (B. subtilis 1049); assay: Localization of RpsB-GFP (translation reporter); type: cell-based, Bacillus subtilis; settings: 3.12 µM Pt1, 25 µM Pt8; 30 and 60 min
Experimental: B. subtilis strains were grown in LB containing appropriate inducer concentrations as specified in Table S10. After reaching an OD600 of 0.3, cultures were split and treated with antibiotics. Samples were withdrawn after 30 and 60 min of treatment, spotted on glass slides covered with 1% agarose films, and immediately imaged.
Figure S10: Localization of RpsB-GFP (B. subtilis 1049). Cultures were treated with 3.12 µM
(1 picture or pasted object on this page, not shown here)

[14] = Stability by 1H and 195Pt NMR; type: physicochemical
Experimental: Measurements were repeated after the 24 h and 48 h of incubations at 37 °C.
Then, 10% D2O was added and 1H NMR was recorded immediately and after 24 h of incubation at 37 °C.

[15] = system: S. aureus ATCC 29213; assay: Resistance induction by serial passage; type: cell-based; settings: after 36 days at ½ MIC
Experimental: The MICs of the passaged cultures were determined every 3 days and compared to that of wild type S. aureus ATCC 29213. MIC changes were recorded for 36 passages.

[16] = system: Galleria mellonella infection model; parameters: method as in PMID 34018686; settings: systematic infection model; cited from earlier work
[17] = system: C. albicans; parameters: method as in PMID 36311838; settings: cited from earlier work

## C1=C\CC/C=C\CC/1.[Cl][Pt][Cl] [Pt1]
[1]
  Antibacterial activity against E. coli: > 100
[2]
  MIC: > 100 µM
[3]; MSSA ATCC 29213
  MIC: 0.67 µM
[3]; MSSA ATCC 29213, Table S5
  MIC: 0.25 µg/mL
[3]; S.aureus ATCC 29213 (unpassaged), Table S9
  MIC: 0.0625 µg/mL
[4]
  MIC: 0.125 – 0.25 µg/mL and 0.33–0.67 µM
[5]
  MIC: 0.25 µg/mL and 0.67 µM
[6]
  MIC: 0.125 – 0.25 µg/mL and 0.33–0.67 µM
[7]
  MIC: 0.125 – 0.25 µg/mL and 0.33–0.67 µM
[8]
  MIC: 0.67 to 1.34 µM
[9]
  MIC: 0.67 to 1.34 µM
[10]
  IC50: > 134 µM
[11]
  delay until the onset of growth inhibition: ~ 30 min
[12]
  membrane depolarization (DiSC(3)5): no membrane depolarization could be observed
[13]
  localization of RpsB: Neither protein showed a distinct phenotype
[14]; DMSO-d6 with 10% D2O, 37 °C
  time compound remains intact in aqueous environment (1H-NMR): at least 24 h
[14]; approximately 7 mM in DMSO-d6, 37 °C, 1H and 195Pt NMR
  time compound remains intact (NMR): at least 48 h
[15]
  MIC after passaging: 0.25 µg/mL
[16]
  in vivo activity: no in vivo activity was observed
[17]
  fungal load: reduced the fungal load
